“And” between values parts separate entries of the source, which are not always exact repeats. Equal values may be shown once. Read-outs that look alike come from different tables or passages of the source.
Key:
Assay type in all cases: cell-based
[1] = biological target: T1, protein kinases (human kinome) (Homo sapiens, UniProt O75385); conditions: for logFC: ULK1 (O75385) protein abundance, degrader vs DMSO, down; for logFC ULK1: ULK1 O75385
T1 sequence (O75385 1-1050): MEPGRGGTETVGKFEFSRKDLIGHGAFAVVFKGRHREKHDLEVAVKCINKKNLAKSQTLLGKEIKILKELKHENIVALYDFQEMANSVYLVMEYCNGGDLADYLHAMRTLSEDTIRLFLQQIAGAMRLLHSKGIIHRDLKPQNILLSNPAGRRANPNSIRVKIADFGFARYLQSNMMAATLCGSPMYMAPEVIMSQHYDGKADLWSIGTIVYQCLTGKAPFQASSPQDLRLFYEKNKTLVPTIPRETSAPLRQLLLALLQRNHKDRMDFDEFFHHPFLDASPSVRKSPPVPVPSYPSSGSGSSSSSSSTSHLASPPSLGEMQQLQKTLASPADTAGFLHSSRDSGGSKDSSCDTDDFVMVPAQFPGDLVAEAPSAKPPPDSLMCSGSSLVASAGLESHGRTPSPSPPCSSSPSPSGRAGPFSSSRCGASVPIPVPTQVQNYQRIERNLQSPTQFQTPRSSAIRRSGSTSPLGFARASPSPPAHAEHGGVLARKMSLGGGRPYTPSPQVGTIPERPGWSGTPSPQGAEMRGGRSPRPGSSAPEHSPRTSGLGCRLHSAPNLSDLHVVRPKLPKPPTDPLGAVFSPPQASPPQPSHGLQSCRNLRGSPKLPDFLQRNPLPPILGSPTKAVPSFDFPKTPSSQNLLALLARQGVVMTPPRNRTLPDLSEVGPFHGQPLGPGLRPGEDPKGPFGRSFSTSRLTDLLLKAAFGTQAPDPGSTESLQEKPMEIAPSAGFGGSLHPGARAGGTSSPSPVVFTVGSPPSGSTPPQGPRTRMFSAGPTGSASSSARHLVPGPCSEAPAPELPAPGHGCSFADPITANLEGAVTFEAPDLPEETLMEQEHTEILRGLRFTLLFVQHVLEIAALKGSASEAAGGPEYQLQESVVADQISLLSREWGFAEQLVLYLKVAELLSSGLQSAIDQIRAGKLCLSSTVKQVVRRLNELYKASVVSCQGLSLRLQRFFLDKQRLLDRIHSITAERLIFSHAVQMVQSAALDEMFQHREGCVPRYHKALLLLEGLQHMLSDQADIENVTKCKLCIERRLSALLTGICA

[2] = biological target: protein kinases (human kinome) (Homo sapiens, UniProt P30291); conditions: for logFC of WEE1: WEE1 P30291-1
[3] = biological target: protein kinases (human kinome) (Homo sapiens, UniProt Q2M2I8)
[4] = biological target: protein kinases (human kinome) (Homo sapiens, UniProt Q9H0K1); conditions: for logFC of SIK2: Accession Q9H0K1; for logFC SIK2 (Q9H0K1): direction of change down
[5] = test system: protein kinases (human kinome); conditions: for logFC MAPK8: MAPK8 P45983-4; for logFC PTK2B: accession Q14289-2; for kinases the bifunctional compound degrades: as stated for the structure in the embodiments; for Kinase hits: kinases significantly downregulated vs DMSO (fold change cutoff −1.25, P-value<0.01), ≤8 h, 0.1-5 μM degrader, 7 cell lines; for Total no. kinase hits: number of degraded kinases per library compound
[6] = biological target: protein kinases (human kinome) (Homo sapiens, UniProt P16591); conditions: for logFC of FER (P16591-1): Experiment wp168, down; for logFC of FER: FER P16591-1, experiment wp168
[7] = biological target: T2, protein kinases (human kinome) (Homo sapiens, UniProt O14965); conditions: experiment wp045
T2 sequence (O14965 1-403): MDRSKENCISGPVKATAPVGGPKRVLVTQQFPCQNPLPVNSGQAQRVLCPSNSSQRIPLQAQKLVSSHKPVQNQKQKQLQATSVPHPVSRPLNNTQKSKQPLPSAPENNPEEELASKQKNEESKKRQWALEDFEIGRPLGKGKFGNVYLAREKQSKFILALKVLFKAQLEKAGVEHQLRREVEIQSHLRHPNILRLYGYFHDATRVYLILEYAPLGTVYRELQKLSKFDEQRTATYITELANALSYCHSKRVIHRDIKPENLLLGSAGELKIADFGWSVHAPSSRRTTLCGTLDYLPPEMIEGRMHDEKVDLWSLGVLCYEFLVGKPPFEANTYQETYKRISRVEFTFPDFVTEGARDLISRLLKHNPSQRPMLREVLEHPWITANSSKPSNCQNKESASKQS

[8] = Experiment wp168, direction down
[9] = MAPK14, accession Q16539-2, experiment wp168, direction of change down
[10] = MAPK14 Q16539-2, experiment wp168
[11] = PTK2B (Q14289-2), experiment wp168, direction down
[12] = experiment wp168, direction of change down

Chain of protein kinases (human kinome) (Homo sapiens, UniProt Q9H0K1) (Q9H0K1 whole entry): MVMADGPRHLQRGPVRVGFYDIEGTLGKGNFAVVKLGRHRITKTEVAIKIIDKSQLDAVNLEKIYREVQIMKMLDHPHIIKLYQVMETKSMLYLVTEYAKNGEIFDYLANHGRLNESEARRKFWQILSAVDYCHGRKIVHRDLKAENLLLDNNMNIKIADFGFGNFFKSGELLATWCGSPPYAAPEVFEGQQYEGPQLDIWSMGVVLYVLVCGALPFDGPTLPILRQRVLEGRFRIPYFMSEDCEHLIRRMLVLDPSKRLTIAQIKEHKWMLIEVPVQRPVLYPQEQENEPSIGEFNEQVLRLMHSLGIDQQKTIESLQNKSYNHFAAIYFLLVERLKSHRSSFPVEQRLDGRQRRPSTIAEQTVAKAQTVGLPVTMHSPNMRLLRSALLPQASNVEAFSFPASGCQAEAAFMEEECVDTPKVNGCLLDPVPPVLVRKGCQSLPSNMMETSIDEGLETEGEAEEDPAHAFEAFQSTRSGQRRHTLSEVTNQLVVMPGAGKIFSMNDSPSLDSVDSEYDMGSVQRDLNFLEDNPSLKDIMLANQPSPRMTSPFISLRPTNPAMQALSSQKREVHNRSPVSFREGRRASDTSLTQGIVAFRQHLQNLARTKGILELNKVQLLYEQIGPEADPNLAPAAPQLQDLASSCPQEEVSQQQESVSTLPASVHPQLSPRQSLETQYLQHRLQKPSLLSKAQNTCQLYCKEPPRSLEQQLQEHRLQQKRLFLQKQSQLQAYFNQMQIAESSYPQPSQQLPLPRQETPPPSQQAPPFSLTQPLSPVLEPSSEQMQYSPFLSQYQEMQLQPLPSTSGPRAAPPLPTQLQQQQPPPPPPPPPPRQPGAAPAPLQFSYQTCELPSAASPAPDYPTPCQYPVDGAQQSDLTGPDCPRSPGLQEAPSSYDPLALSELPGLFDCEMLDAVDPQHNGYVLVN
Chain of protein kinases (human kinome) (Homo sapiens, UniProt P16591) (P16591 whole entry): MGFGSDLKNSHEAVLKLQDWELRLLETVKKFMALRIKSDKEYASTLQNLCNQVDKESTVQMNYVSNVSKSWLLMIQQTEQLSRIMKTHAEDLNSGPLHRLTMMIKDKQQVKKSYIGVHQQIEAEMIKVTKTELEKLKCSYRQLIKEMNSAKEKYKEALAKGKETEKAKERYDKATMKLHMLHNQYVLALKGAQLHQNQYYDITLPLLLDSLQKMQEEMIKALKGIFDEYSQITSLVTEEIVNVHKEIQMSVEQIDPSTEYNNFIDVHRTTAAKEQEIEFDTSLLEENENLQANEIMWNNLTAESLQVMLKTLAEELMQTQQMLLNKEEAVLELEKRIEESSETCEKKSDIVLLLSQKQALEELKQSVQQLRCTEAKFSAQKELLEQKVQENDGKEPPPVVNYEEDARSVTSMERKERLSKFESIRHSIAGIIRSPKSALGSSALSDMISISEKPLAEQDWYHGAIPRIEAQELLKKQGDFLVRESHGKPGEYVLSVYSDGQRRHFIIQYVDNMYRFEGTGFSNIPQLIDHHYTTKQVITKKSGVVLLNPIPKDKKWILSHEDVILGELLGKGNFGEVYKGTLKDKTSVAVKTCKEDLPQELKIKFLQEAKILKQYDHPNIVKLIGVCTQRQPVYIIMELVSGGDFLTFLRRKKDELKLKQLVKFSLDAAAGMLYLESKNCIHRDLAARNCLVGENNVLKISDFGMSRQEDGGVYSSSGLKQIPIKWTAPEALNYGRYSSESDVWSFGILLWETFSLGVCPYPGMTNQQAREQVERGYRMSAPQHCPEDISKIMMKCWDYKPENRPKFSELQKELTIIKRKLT
Chain of protein kinases (human kinome) (Homo sapiens, UniProt Q2M2I8) (Q2M2I8 whole entry): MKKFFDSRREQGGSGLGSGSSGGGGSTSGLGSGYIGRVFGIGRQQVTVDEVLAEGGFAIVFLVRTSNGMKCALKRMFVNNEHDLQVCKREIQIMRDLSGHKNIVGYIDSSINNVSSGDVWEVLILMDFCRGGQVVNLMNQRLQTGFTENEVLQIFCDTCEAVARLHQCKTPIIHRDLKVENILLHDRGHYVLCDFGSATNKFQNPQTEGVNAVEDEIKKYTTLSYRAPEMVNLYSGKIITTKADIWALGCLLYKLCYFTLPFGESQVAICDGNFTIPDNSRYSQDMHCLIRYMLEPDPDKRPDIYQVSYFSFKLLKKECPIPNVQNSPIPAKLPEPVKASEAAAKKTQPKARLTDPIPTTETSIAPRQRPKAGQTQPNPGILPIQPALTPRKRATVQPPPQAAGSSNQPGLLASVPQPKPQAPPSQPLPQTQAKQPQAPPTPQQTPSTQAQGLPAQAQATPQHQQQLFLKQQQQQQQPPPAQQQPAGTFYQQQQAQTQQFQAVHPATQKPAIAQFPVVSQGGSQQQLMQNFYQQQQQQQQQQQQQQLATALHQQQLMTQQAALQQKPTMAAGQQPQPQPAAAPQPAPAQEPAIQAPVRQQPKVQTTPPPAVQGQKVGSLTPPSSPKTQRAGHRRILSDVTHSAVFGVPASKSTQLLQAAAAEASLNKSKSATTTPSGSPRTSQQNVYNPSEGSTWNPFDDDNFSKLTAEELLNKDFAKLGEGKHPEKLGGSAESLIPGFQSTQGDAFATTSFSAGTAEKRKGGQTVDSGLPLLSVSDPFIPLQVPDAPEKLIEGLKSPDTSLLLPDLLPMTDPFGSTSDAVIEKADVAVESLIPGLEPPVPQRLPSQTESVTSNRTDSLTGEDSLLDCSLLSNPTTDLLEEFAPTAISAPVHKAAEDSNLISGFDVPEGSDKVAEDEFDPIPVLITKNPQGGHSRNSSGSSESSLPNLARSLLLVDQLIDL
Chain of protein kinases (human kinome) (Homo sapiens, UniProt P30291) (P30291 whole entry): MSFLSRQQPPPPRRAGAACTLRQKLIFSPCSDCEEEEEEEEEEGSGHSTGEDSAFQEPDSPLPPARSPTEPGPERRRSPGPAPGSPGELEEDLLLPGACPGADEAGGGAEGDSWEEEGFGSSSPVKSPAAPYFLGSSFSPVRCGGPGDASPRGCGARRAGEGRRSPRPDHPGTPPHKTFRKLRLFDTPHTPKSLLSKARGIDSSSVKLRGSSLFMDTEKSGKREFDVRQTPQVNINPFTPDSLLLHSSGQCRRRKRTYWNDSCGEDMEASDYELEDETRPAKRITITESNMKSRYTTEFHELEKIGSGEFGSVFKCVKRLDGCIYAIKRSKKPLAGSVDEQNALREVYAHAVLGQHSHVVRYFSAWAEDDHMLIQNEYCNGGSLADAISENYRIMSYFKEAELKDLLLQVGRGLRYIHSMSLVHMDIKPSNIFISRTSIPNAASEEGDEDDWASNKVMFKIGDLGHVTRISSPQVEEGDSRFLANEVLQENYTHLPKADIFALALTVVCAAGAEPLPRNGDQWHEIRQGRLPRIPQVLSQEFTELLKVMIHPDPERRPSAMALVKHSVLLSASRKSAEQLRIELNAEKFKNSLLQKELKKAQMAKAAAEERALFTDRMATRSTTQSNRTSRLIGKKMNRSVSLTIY

| SMILES | logFC [1] | logFC ULK1 ([1]; experiment wp168) | logFC of FER (P16591-1) [6] | logFC of FER [6] | logFC of SIK2 ([4]; experiment wp168) | logFC SIK2 (Q9H0K1) ([4]; experiment wp168) | logFC MAP3K20 (Q9NYL2-2) ([5]; Experiment wp168) | logFC MAPK8 (P45983-4) [5, 8] | logFC MAPK8 ([5]; experiment wp168) | logFC MAPK14 [5, 9] | logFC MAPK14 [5, 10] | logFC [5, 11] | logFC PTK2B [5, 12] | kinases the bifunctional compound degrades [5] | logFC MAP3K20 (Q9NYL2-2) ([5]; experiment wp168) | Kinase hits [5] | Total no. kinase hits [5] | further results |
| --- | --- | --- | --- | --- | --- | --- | --- | --- | --- | --- | --- | --- | --- | --- | --- | --- | --- | --- |
| Cc1ncsc1-c1ccc([C@H](C)NC(=O)[C@@H]2C[C@@H](O)CN2C(=O)[C@@H](NC(=O)CCCCCN2CCc3cc(Nc4ncc(C5CC5)c(NCCCNC(=O)C5CCC5)n4)ccc3C2)C(C)(C)C)cc1 [BSJ.05.026] | −0.4424 |  |  |  |  |  |  |  |  |  |  |  |  |  |  |  |  | logFC ULK1 ([1]; experiment wp195): −0.4424; logFC WEE1 (P30291-1) ([2]; Experiment wp195): −0.8876; logFC of WEE1 ([2]; experiment wp196): −0.8876; logFC AAK1 ([3]; AAK1 (Q2M218-1), experiment wp195, down): −3.073; logFC AAK1 ([3]; AAK1, accession Q2M218-1, experiment wp195, direction of change down): −3.073; logFC of SIK2 ([4]; experiment wp195): −0.9472; logFC SIK2 (Q9H0K1) ([4]; experiment wp195): −0.9472; logFC ([5]; MARK3 (P27448-5), experiment wp195): −0.8242; logFC MARK3 (P27448-5) ([5]; experiment wp195, direction of change down): −0.8242 |
| Cc1ccc(NC(=O)c2cccc(C(F)(F)F)c2)cc1N1Cc2cnc(Nc3ccc(N4CCN(CCCOc5cccc6c5C(=O)N(C5CCC(=O)NC5=O)C6=O)CC4)nc3)nc2N(C)C1=O (stereo not drawn) [DB0662] | −0.3582 | −0.3582 | −1.481 | −1.481 | −0.777 | −0.777 | −1.006 | −0.8961 | −0.8961 | −1.34 | −1.34 | −3.245 | −3.245 | ABL1, ABL2, BLK, BUB1, CDK11B, CDK4, CSK, EPHB6, FER. FYN, GAK, LCK, LIMK1, MAP3K1, MAP3K11, MAP3K20, MAP4K1, MAPK14, MAPK8, MAPK9, MAPKAPK2, MKNK2, PAK4, PDIK1L, PTK2B, RPS6KA1, RPS6KA3, SIK2, SRC, TNK2, UHMK1, ULK1, and YES1 | −1.006 | ABL1, ABL2, BLK, BUB1, CDK11B, CDK4, CSK, EPHB6, FER, FYN, GAK, LCK, LIMK1, MAP3K1, MAP3K11, MAP3K20, MAP4K1, MAPK14, MAPK8, MAPK9, MAPKAPK2, MKNK2, PAK4, PDIK1L, PTK2B, RPS6KA1, RPS6KA3, SIK2, SRC, TNK2, UHMK1, ULK1,YES1 | 33 | logFC FYN ([5]; Accession P06241-2, experiment wp168): −0.5636; logFC FYN ([5]; FYN P06241-2, experiment wp168): −0.5636 |
| Cc1ccc(NC(=O)c2cccc(C(F)(F)F)c2)cc1N1Cc2cnc(Nc3ccc(N4CCN(CCCCC(=O)N[C@H](C(=O)N5C[C@H](O)C[C@H]5C(=O)N[C@@H](C)c5ccc(-c6scnc6C)cc5)C(C)(C)C)CC4)nc3)nc2N(C)C1=O [DB1113] | −0.352 | −0.352 | −1.118 | −1.118 | −0.7296 | −0.7296 | −0.9693 | −0.3642 | −0.3642 | −1.588 | −1.588 | −1.705 | −1.705 | ABL1, ABL2, BLK, CDK11B, CDK4, CSK, EPHA3, FER, GAK, LIMK1, MAP3K20, MAP4K1, MAP4K2, MAP4K3, MAP4K5, MAPK14, MAPK7, MAPK8, MAPK9, MAPKAPK2, MAPKAPK3, NLK, PDIK1L, PTK2B, RIPK1, RPS6KA1, RPS6KA3, SIK2, SIK3, STK35, TNK2, and ULK1 | −0.9693 | ABL1, ABL2, BLK, CDK11B, CDK4, CSK, EPHA3, FER, GAK, LIMK1, MAP3K20, MAP4K1, MAP4K2, MAP4K3, MAP4K5, MAPK14, MAPK7, MAPK8, MAPK9, MAPKAPK2, MAPKAPK3, NLK, PDIK1L, PTK2B, RIPK1, RPS6KA1, RPS6KA3, SIK2, SIK3, STK35, TNK2, ULK1 | 31 |  |
| CS(=O)(=O)Nc1cccc(-c2csc3cnc(Nc4ccc(N5CCN(CCOCCOCCOc6cccc7c6C(=O)N(C6CCC(=O)NC6=O)C7=O)CC5)cc4)nc23)c1 (stereo not drawn) [RSS0628] | −0.5583 |  |  |  |  |  |  |  |  |  |  |  |  | AAK1. AURKA, CAMKK1, CDK4, CDK6, LIMK2, NEK9, PTK2B, STK17A, STK17B, ULK1, ULK3, and WEE1 |  | AAK1, AURKA, CAMKK1, CDK4, CDK6, LIMK2, NEK9, PTK2B, STK17A, STK17B, ULK1, ULK3, WEE1 | 13 | logFC AURKA (O14965) [7]: −1.13; logFC ULK1 ([1]; experiment wp045): −0.5583; logFC WEE1 (P30291-1) ([2]; experiment wp045): −1.578; logFC AAK1 ([3]; AAK1 (Q2M218-1), experiment wp045, down): −1.24; logFC AAK1 ([3]; AAK1, accession Q2M218-1, experiment wp045, direction of change down): −1.24; logFC ([5]; CAMKK1 (Q8N5S9-2), experiment wp045): −0.3412; logFC of CAMKK1 (Q8N5S9-2) ([5]; Experiment wp045): −0.3412 |
| Cc1ncsc1-c1ccc([C@H](C)NC(=O)[C@@H]2C[C@@H](O)CN2C(=O)[C@@H](NC(=O)CCCCCN2CCN(c3ccc(Nc4ncc5scc(-c6cccc(NS(C)(=O)=O)c6)c5n4)cc3)CC2)C(C)(C)C)cc1 [RSS0680, (2S,4R)-1-((S)-3,3-Dimethyl-2-(6-(4-(4-((7-(3-(methylsulfonamido)phenyl)thieno[3,2-d]pyrimidin-2-yl)amino)phenyl)piperazin-1-yl)hexanamido)butanoyl)-4-hydroxy-N—((S)-1-(4-(4-methylthiazol-5yl)phenyl)ethyl)pyrrolidine-2-carboxamide] | −0.4057 and −0.4996 |  |  |  |  |  |  |  |  |  |  |  |  | AAK1, CDK1, CDK16, CDK2, CDK4, CDK6, EIF2AK4, GAK. LATS1, LIMK2, MAPK6, MAPKAPK5, MARK2, MARK4, MKNK2, NEK9, RPS6KB1, SIK2, SNRK, STK17A, STK17B, STK35, and WEE1 |  | AAK1, CDK1, CDK16, CDK2, CDKA, CDK6, EIF2AK4, GAK, LATS1, LIMK2, MAPK6, MAPKAPK5, MARK2, MARK4, MKNK2, NEK9, RPS6KB1, SIK2, SNRK, STK17A, STK17B. STK35, WEE1 | 26 | logFC ULK1 ([1]; experiment wp080): −0.4057; logFC ULK1 ([1]; experiment wp117): −0.4996; logFC of WEE1 ([2]; experiment wp080): −2.359; logFC of WEE1 ([2]; experiment wp117): −1.85; logFC WEE1 (P30291-1) ([2]; experiment wp080): −2.359; logFC WEE1 (P30291-1) ([2]; experiment wp117): −1.85; logFC AAK1 ([3]; AAK1 (Q2M218-1), experiment wp080, down): −1.392; logFC AAK1 ([3]; AAK1 (Q2M218-1), experiment wp117, down): −1.05; logFC AAK1 ([3]; AAK1, accession Q2M218-1, experiment wp080, direction of change down): −1.392; logFC AAK1 ([3]; AAK1, accession Q2M218-1, experiment wp117, direction of change down): −1.05; logFC of SIK2 ([4]; experiment wp080): −0.6986; logFC of SIK2 ([4]; experiment wp117): −0.7184; logFC SIK2 ([4]; SIK2 (Q9H0K1), experiment wp080, down): −0.6986; logFC SIK2 (Q9H0K1) ([4]; experiment wp117): −0.7184; logFC CDK16 (Q00536-2) ([5]; experiment wp080): −1.002; logFC CDK16 (Q00536-2) ([5]; experiment wp117): −0.9383; logFC HK1 ([5]; protein HK1 (P19367-3), experiment wp080, down): −0.3696 |
